In patent US6399618B1, “Compositions and methods for modulating sexual activity” (priority 1997, dated 2002):
Structures can show the parent of a compound that is named as a salt. Marks after values point to notes of the source that are not given here.

Columns and labels:
male primates = assay: Sexual behavior in male primates, paired observation study (penile response grades); assay type: in vivo, macaca fascilaris; conditions: 1.0 mg/kg ip; N=3; observed 1 hour
Method: Monkeys used for testing were separated from the cluster of cages and treated and observed in pairs in the middle of the housing environment.
N=3 for all drug-treated animals, while N=18 for saline-treated animals. […] Data are expressed as the number of test animals having a particular grade of penile response. Penile responses were scored every 10 sec for 1 hour according to the following scale:
Grade 0=glans are hidden from the view
Grade 1=glans are clearly visible
Grade 2=penis is extended
Grade 4=erection with masturbation
Grade 5=erection with masturbation and ejaculation

[1] = test system: noradrenaline pre-contracted rabbit CC; assay: Direct action on penile erection: tone of corpus cavernosal muscle strips in organ bath; conditions: concentration from 10^-8 M to 10^-4 M; n=6
Method: Corpus cavernosal (CC) muscle strips were prepared from penises obtained from rabbit (n=6). CC strips were dissected free from tunica albungia and mounted in 10 or 25 mL organ baths containing Tyrode solution saturated with 95%O2/5% CO2 mixture.

male rats [2] = assay: Rat sexual behavior, proerectile actions (injected); assay type: in vivo, SD rats; conditions: for Erections/60 minutes / Latency to the first erection: mean±sem; for Erections/60 minutes / Latency to the first erection / Responders: n=10
Method: Male SD rats (350-450 g; n=10 per group) were injected with increasing doses of XVIb (4.0-64.0 mg/kg), XVIa (1.0, 4.0 or 16 mg/kg) or saline and observed 5 minutes later, in groups of 5, for the number of erections and the time to the first erection, over a 60 minutes observation period.
In Table 2, the effects of XVIb, XVIa and saline on erection in male rats is indicated. Data is expressed as the mean±sem for 10 test animals. Data marked with an asterisk “*” indicate significant difference from saline (α<0.05) as determined by ANOVA with Tukey test for multiple comparisons.

male rats [3] = assay: Rat sexual behavior, proerectile actions after oral administration; assay type: in vivo, SD rats
Method: Male SD rats (250-300 g) were administered increasing doses of XVIb (30-100 mg/kg in distilled water, per os) or distilled water only via a feeding tube, and observed 5 minutes later for the number of erections (as characterized by penile grooming) over a 60 minute observation period. Six rats at a time, housed singly, were observed by two observers. Treatments were administered in a standard randomized and double blinded manner.

male rats [4] = assay: Rat behavior, blood chemistry and body temperature; assay type: in vivo, SD rats
Method: Male SD rats (350-450 g; n=15 per group) were injected with a single dose of XVIb (16 mg/kg, ip) and saline and observed 5 minutes later, in pairs, for erections, ejaculation, movement and grooming over a 60 minute observation period. Rectal temperature was recorded before drug administration and 1 hour after drug administration. At the end of experiments rats were decapitated and trunk blood was collected for RIA analysis of serum cortisol and prolactin levels.

male rats [5] = assay: Antagonism of XVIb-induced erections by comparative compounds in rats; assay type: in vivo, SD rats; conditions: XVIb 16 mg/kg ip; n=6
Method: Male SD rats (300-500 g; n=6 per group) were injected with (±)-Pindolol, scopolamine, haloperidol, or ketanserin, 30 minutes prior to injection of a single dose of XVIb (16 mg/kg, ip) or saline.

male rats [6] = assay: Rat procopulatory actions (copulatory behavior with receptive female); assay type: in vivo, Long-Evans rats
Method: Male Long-Evans rats (300-600 g; n=15 per group) were injected with saline or XVIb (1.5-30.5 mg/kg; ip) 5 minutes prior to being paired with a female rat sexually receptive by administration of estradiol benzoate (25 μg; 48 hours prior to testing) and progesterone (1 mg/kg; 4 hours prior to testing). Mount latency, intromission latency, ejaculation latency, mounts, intromissions, ejaculations and post ejaculatory interval were recorded over a 30 minutes observation period.
In Table 3, the effect of compound XVIb on copulatory behavior in male rats is shown. Data are expressed as mean (sem for 15 test animals). Latency is the time in seconds to appearance of that behavior. Ejaculations are the number of such events during 30 minutes of observation. Intromissions are the number of such events before ejaculation. Post ejaculatory interval is the time in seconds from ejaculation on intromission to the first mount of the next copulatory sequence. P values derived from two-tailed t-test for significance between mean values (α<0.05).

[7] = 16 mg/kg ip, RIA of trunk blood at end of experiment
[8] = 15 mg/kg ip, n=15, 30 minutes observation

## CN1CCN(C(=O)Cc2ccc3ccccc3c2)CC1 [Compound XVIb, 1-Methyl-4(2-naphthaleneacetyl)piperazine monohydrochloride]
Male primates
  number of test animals having Grade 0 penile response (glans are hidden from the view): 1
  number of test animals having Grade 1 penile response (glans are clearly visible): 2
  number of test animals having Grade 2 penile response (penis is extended): 2
  number of test animals having Grade 3 penile response (full erection): 2
  number of test animals having Grade 4 penile response (erection with masturbation): 1
  number of test animals having Grade 5 penile response (erection with masturbation and ejaculation): 0
[1]
  effect on tone of noradrenaline pre-contracted rabbit CC: failed to reduce tone
Male rats [2]; 4.0 mg/kg
  Erections/60 minutes: 2.1 ± 0.4
  Latency to the first erection: 2390 ± 238 s
  Responders: 100%
Male rats [2]; 8.0 mg/kg
  Erections/60 minutes: 5.1 ± 0.6* #
  Latency to the first erection: 1299 ± 214 s
  Responders: 100%
Male rats [2]; 16.0 mg/kg
  Erections/60 minutes: 7.7 ± 0.4* #
  Latency to the first erection: 654 ± 108* sec
  Responders: 100%
Male rats [2]; 32.0 mg/kg
  Erections/60 minutes: 2.5 ± 0.2
  Latency to the first erection: 1046 ± 64* sec
  Responders: 100%
Male rats [2]; 64.0 mg/kg
  Erections/60 minutes: 2.7 ± 0.5
  Latency to the first erection: 3319 ± 170* sec
  Responders: 100%
Male rats [2]; 60 minutes observation
  effect on penile erections (in words): produced erections in rats in a bell shaped dose-response fashion
Male rats [2]; doses 4.0-64.0 mg/kg
  dose at which the maximal effect on erections was observed: 16 mg/kg
  dose with minimal time to the first erection: 16 mg/kg
Male rats [3]; 30 mg/kg p.o.
  Responders: 100%
  maximum number of erections/rat: 3 h⁻¹
Male rats [3]; 100 mg/kg p.o.
  Responders: 100%
  maximum number of erections/rat: 5 h⁻¹
Male rats [4]; [7]
  Serum cortisol: not significantly altered
  Serum prolactin: not significantly altered
Male rats [4]; 16 mg/kg ip, n=15
  Rearing: 77±5.9 rears/60 minutes
  erections: 5.6±0.7 erections/60 minutes
  locomotion: 20.7±3.3 moves
  non-penile grooming: 22±4.8 grooms/60 minutes
  penile grooming: 12.1±3.3 grooms/60 minutes
Male rats [4]; 16 mg/kg ip, n=15, 60 minute observation
  ejaculations: 1.8±0.1 ejaculations
Male rats [4]; 16 mg/kg, before and 1 hour after drug administration
  Rectal temperature: not significantly altered
Male rats [5]
  erections with XVIb without antagonist (pindolol comparison): 7.8±1.4 erections/60 minutes
  erections with XVIb without antagonist (scopolamine comparison): 1.7 erections/60 minutes
Male rats [6]; 7.5 mg/kg and 30.5 mg/kg only, data is not shown
  number of intromissions (in words): reducing the number of intromissions
Male rats [6]; 15 mg/kg ip, n=15
  Post ejaculatory interval: 426.6 ± 28.5 s
Male rats [6]; [8]
  Ejaculation latency: 330.9 ± 31.5 s
  Intromission latency: 405.1 ± 88.0 s
  Mount latency: 204.5 ± 31.9 s
Male rats [6]; 15 mg/kg ip, n=15, before ejaculation
  Intromissions: 6.9 ± 0.7
Male rats [6]; 15 mg/kg ip, n=15, during 30 minutes of observation
  ejaculations: 4.7 ± 0.2
Male rats [6]; any of doses tested (1.5-30.5 mg/kg ip)
  Post ejaculatory interval (in words): not affected
Male rats [6]; doses above and below 15 mg/kg
  copulatory behaviors (in words): without significant effects
